Measured values as given in US8461083B2, “Herbicidal compounds” (Syngenta Limited, priority 2008, dated 2013).

Tests used:
[1] = test system: Alopecurus myosuroides (ALOMY); test: Post-emergence herbicidal glasshouse test; type: in vivo; conditions: post-emergence (sprayed after 8 days cultivation), evaluated after 13 days, 100=total damage to plant, 0=no damage to plant; for pest or weed control at 1000 g/ha: Alopecurus myosuroides, 312 h, read-out: POST Application ALOMY, damage to plant; for POST Application ALOMY, damage to plant: 1000 g/ha
Method in brief: (§1)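 Pots of SETFA, SOLNI, AMARE and ALOMY sprayed 1 day (pre-) or 8 days (post-emergence) after sowing at 1000 g/ha, formulated in acetone/water (50:50) with 0.5% Tween 20. Glasshouse at 24/16° C day/night, 14 h light, 65% humidity. Damage scored 0–100 after 13 days.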

[2] = test system: Amaranthus retoflexus (AMARE); test: Post-emergence herbicidal glasshouse test; type: in vivo; conditions: post-emergence (sprayed after 8 days cultivation), evaluated after 13 days, 100=total damage to plant, 0=no damage to plant; for pest or weed control at 1000 g/ha: Amaranthus retroflexus, 312 h, read-out: POST Application AMARE, damage to plant; for POST Application AMARE, damage to plant: 1000 g/ha
Method in brief: as §1

[3] = test system: Echinochloa crus-galli (ECHCG); test: Post-emergence herbicidal glasshouse test; type: in vivo; conditions: post-emergence (sprayed after 8 days cultivation), evaluated after 13 days, 100=total damage to plant, 0=no damage to plant; for pest or weed control at 1000 g/ha: Echinochloa crus-galli, 312 h, read-out: POST Application ECHCG, damage to plant; for POST Application ECHCG, damage to plant: 1000 g/ha
Method in brief: (§2)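 Seeds were sown in standard soil in pots and sprayed 1 day after sowing (pre-emergence) or after 8 days' cultivation (post-emergence). Compounds were applied at 1000 g/ha in acetone/water (50:50) with 0.5% Tween 20. Plants were kept at 24/16 °C day/night, 14 h light, 65% humidity, and damage was scored after 13 days (0 = none, 100 = total).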

Setaria faberi (SETFA) [4] = test: Post-emergence herbicidal glasshouse test; type: in vivo; conditions: post-emergence (sprayed after 8 days cultivation), evaluated after 13 days, 100=total damage to plant, 0=no damage to plant; for pest or weed control at 1000 g/ha: Setaria faberi, 312 h, read-out: POST Application SETFA, damage to plant; for POST Application SETFA, damage to plant: 1000 g/ha
Method in brief: as §1

Solanum nigrum (SOLNI) [5] = test: Post-emergence herbicidal glasshouse test; type: in vivo; conditions: post-emergence (sprayed after 8 days cultivation), evaluated after 13 days, 100=total damage to plant, 0=no damage to plant; for pest or weed control at 1000 g/ha: Solanum nigrum, 312 h, read-out: POST Application SOLNI, damage to plant; for POST Application SOLNI, damage to plant: 1000 g/ha
Method in brief: as §1

[6] = test system: Alopecurus myosuroides (ALOMY); test: Pre-emergence herbicidal glasshouse test; type: in vivo; conditions: pre-emergence (sprayed after one day cultivation), evaluated after 13 days, 100=total damage to plant, 0=no damage to plant; for pest or weed control at 1000 g/ha: Alopecurus myosuroides, 312 h, read-out: PRE Application ALOMY, damage to plant; for PRE Application ALOMY, damage to plant: 1000 g/ha
Method in brief: as §1

[7] = test system: Echinochloa crus-galli (ECHCG); test: Pre-emergence herbicidal glasshouse test; type: in vivo; conditions: pre-emergence (sprayed after one day cultivation), evaluated after 13 days, 100=total damage to plant, 0=no damage to plant; for pest or weed control at 1000 g/ha: Echinochloa crus-galli, 312 h, read-out: PRE Application ECHCG, damage to plant; for PRE Application ECHCG, damage to plant: 1000 g/ha
Method in brief: as §2

Setaria faberi (SETFA) [8] = test: Pre-emergence herbicidal glasshouse test; type: in vivo; conditions: pre-emergence (sprayed after one day cultivation), evaluated after 13 days, 100=total damage to plant, 0=no damage to plant; for pest or weed control at 1000 g/ha: Setaria faberi, 312 h, read-out: PRE Application SETFA, damage to plant; for PRE Application SETFA, damage to plant: 1000 g/ha
Method in brief: as §1

Solanum nigrum (SOLNI) [9] = test: Pre-emergence herbicidal glasshouse test; type: in vivo; conditions: pre-emergence (sprayed after one day cultivation), evaluated after 13 days, 100=total damage to plant, 0=no damage to plant; for pest or weed control at 1000 g/ha: Solanum nigrum, 312 h, read-out: PRE Application SOLNI, damage to plant; for PRE Application SOLNI, damage to plant: 1000 g/ha
Method in brief: as §1

[10] = test system: Amaranthus retoflexus (AMARE); test: Pre-emergence herbicidal glasshouse test; type: in vivo; conditions: pre-emergence (sprayed after one day cultivation), evaluated after 13 days, 100=total damage to plant, 0=no damage to plant; for PRE Application AMARE, damage to plant: 1000 g/ha
Method in brief: as §1

| Compound | pest or weed control at 1000 g/ha [1] [%] | pest or weed control at 1000 g/ha [2] [%] | pest or weed control at 1000 g/ha [3] [%] | pest or weed control at 1000 g/ha (Setaria faberi (SETFA) [4]) [%] | pest or weed control at 1000 g/ha (Solanum nigrum (SOLNI) [5]) [%] | pest or weed control at 1000 g/ha [6] [%] | pest or weed control at 1000 g/ha [7] [%] | pest or weed control at 1000 g/ha (Setaria faberi (SETFA) [8]) [%] | pest or weed control at 1000 g/ha (Solanum nigrum (SOLNI) [9]) [%] | POST Application ALOMY, damage to plant [1] | POST Application AMARE, damage to plant [2] | POST Application ECHCG, damage to plant [3] | POST Application SETFA, damage to plant (Setaria faberi (SETFA) [4]) | POST Application SOLNI, damage to plant (Solanum nigrum (SOLNI) [5]) | PRE Application ALOMY, damage to plant [6] | PRE Application AMARE, damage to plant [10] | PRE Application ECHCG, damage to plant [7] | PRE Application SETFA, damage to plant (Setaria faberi (SETFA) [8]) | PRE Application SOLNI, damage to plant (Solanum nigrum (SOLNI) [9]) | other results |
| --- | --- | --- | --- | --- | --- | --- | --- | --- | --- | --- | --- | --- | --- | --- | --- | --- | --- | --- | --- | --- |
| COCC(F)(F)c1nc2nc(C)c(F)cc2cc1C(=O)C1C(=O)C2CCC(C2)C1=O (stereo not drawn) [Compound 3.13, 3-[6-fluoro-2-(2-methoxy-1,1-difluoroethyl)-7-methyl [1,8]-naphthyridine-3-carbonyl]-bicyclo[3.2.1]octane-2,4-dione] | 40 | 70 | 80 | 80 | 70 | 10 | 100 | 80 | 80 |  |  |  |  |  |  |  |  |  |  | melting point: 177 to 180 °C |
| CC#CCn1c(=O)ccc2cc(C(=O)C3C(=O)CCCC3=O)c(C(F)(F)F)nc21 [Compound 2.19, 2-(8-(But-2-ynyl)-7-oxo-7,8-dihydro-2-trifluoromethyl-[1,8]-naphthyridine-3-carbony)-cyclohexane-1,3-dione] |  |  |  |  |  |  |  |  |  | 100 | 70 | 90 | 100 | 100 | 100 | 100 | 100 | 100 | 100 |  |
| O=C1CCCC(=O)C1C(=O)c1cc2ccc(=O)n(CCF)c2nc1C(F)(F)F [Compound 2.11, 2-{8-(2-fluoroethyl)-7-oxo-7,8-dihydro-2-trifluoromethyl-[1,8]-naphthyridine-3-carbony}-cyclohexane-1,3-dione] |  |  |  |  |  |  |  |  |  | 90 | 100 | 90 | 90 | 100 | 40 | 60 | 100 | 90 | 100 |  |
| COCCN(C)c1nc2nc(C(F)(F)F)c(C(=O)C3C(=O)CCCC3=O)cc2cc1F [Compound 1.80, 2-[6-fluoro-7-(2-methoxyethylmethylamino)-2-trifluoromethyl-[1,8]-naphthyridine-3-carbony]-cyclohexane-1,3-dione] |  |  |  |  |  |  |  |  |  | 80 | 80 | 90 | 80 | 80 | 80 | 100 | 100 | 100 | 100 |  |
| Cc1cc(Cn2c(=O)ccc3cc(C(=O)C4C(=O)CCCC4=O)c(C(F)(F)F)nc32)no1 [Compound 2.1] |  |  |  |  |  |  |  |  |  | 90 | 100 | 80 | 90 | 90 | 80 | 90 | 90 | 90 | 90 |  |
| CNc1nc2nc(C(F)(F)F)c(C(=O)C3C(=O)CCCC3=O)cc2cc1F [Compound 1.98, 2-[6-fluoro-7-methylamino-2-trifluoromethyl-[1,8]-naphthyridine-3-carbony]-cyclohexane-1,3-dione] | 70 | 90 | 80 | 80 | 40 | 20 | 100 | 100 | 100 |  |  |  |  |  |  |  |  |  |  | pest or weed control at 1000 g/ha ([10]; Amaranthus retroflexus, 312 h, read-out: PRE Application AMARE, damage to plant): 100% |
